Source: ChEMBL document CHEMBL1157586 (Bioorg Med Chem, 2010)
In brackets after ≈: the same amount, converted by molar mass.

Tests used:
A2780 = assay: Antiproliferative activity against human A2780 cells after 72 hrs by CellTiter-Glo luminescence assay; conditions: A2780, 72 h
[1] = Solubility at pH 7; format: physicochemical; conditions: buffer
[2] = target: Cyclin-dependent kinase 2/cyclin A (Homo sapiens, UniProt P24941); assay: Inhibition of human CDK2/cyclin A expressed in Escherichia coli BL21 by scintillation proximity assay

IC50 (A2780) | solubility [1] | IC50 [2] | Structure (SMILES)
350 nM | > 225 µM | 214 nM | CN1CCC(C(=O)Nc2n[nH]c3c2CN(C(=O)C(C)(C)C)C3(C)C)CC1
– | 55 µM (≈ 25.4 µg/mL) | 3500 nM | CC1(C)c2[nH]nc(NC(=O)c3ccc(F)cc3)c2CN1C(=O)N1CCN(c2ccccc2)CC1
110 nM | 205 µM (≈ 70 µg/mL) | 49 nM | CC(C)(C)C(=O)N1Cc2c(NC(=O)c3ccncc3)n[nH]c2C1(C)C
350 nM | > 225 µM | 10 nM | CN1CCC(C(=O)N2Cc3c(NC(=O)Nc4cccc(F)c4)n[nH]c3C2(C)C)CC1
650 nM | 204 µM (≈ 78.6 µg/mL) | 30 nM | CC1(C)c2[nH]nc(NC(=O)c3ccc(F)cc3)c2CN1C(=O)C1CCNCC1
690 nM | 207 µM (≈ 70.7 µg/mL) | 50 nM | CC(C)(C)C(=O)N1Cc2c(NC(=O)c3cccnc3)n[nH]c2C1(C)C
> 10000 nM | > 225 µM | 540 nM | CC(=O)N1CCN(C(=O)N2Cc3c(NC(=O)c4ccc(F)cc4)n[nH]c3C2(C)C)CC1
410 nM | > 225 µM | 14 nM | CCN1CCC(C(=O)N2Cc3c(NC(=O)CC(C)C)n[nH]c3C2(C)C)CC1
290 nM | > 225 µM | 30 nM | CCN1CCC(C(=O)N2Cc3c(NC(=O)c4ccc(F)cc4)n[nH]c3C2(C)C)CC1
> 5000 nM | > 225 µM | 33 nM | CN1CCC(C(=O)N2Cc3c(NC(=O)c4ccco4)n[nH]c3C2(C)C)CC1
650 nM | > 225 µM | 169 nM | CC(C)(C)C(=O)N1Cc2c(NC(=O)C3CCNCC3)n[nH]c2C1(C)C
> 5000 nM | > 225 µM | 60 nM | CC1(C)c2[nH]nc(NC(=O)c3ccc(F)cc3)c2CN1C(=O)N1CCN(CCO)CC1
60 nM | 200 µM | 16 nM | OC[C@H]1O[C@H](OC[C@H]2O[C@@H](O[C@]3(CO)O[C@H](CO)[C@@H](O)[C@@H]3O)[C@H](O)[C@@H](O)[C@@H]2O)[C@H](O)[C@@H](O)[C@H]1O.OC[C@H]1O[C@H](OC[C@H]2O[C@H](O[C@]3(CO)O[C@H](CO)[C@@H](O)[C@@H]3O)[C@H](O)[C@@H](O)[C@@H]2O)[C@H](O)[C@@H](O)[C@H]1O
60 nM | 191 µM (≈ 85.9 µg/mL) | 26 nM | CN1CCC(C(=O)N2Cc3c(NC(=O)c4ccc(C(F)(F)F)cc4)n[nH]c3C2(C)C)CC1
270 nM | 235 µM (≈ 84.2 µg/mL) | – | CC(C)(C)C(=O)N1Cc2c(NC(=O)c3ccc(F)cc3)n[nH]c2C1(C)C
> 10000 nM | 204 µM (≈ 87.2 µg/mL) | 4800 nM | CC(=O)N1CCC(C(=O)N2Cc3c(NC(=O)c4ccc(F)cc4)n[nH]c3C2(C)C)CC1
270 nM | 219 µM (≈ 94.5 µg/mL) | 27 nM | CN1CCC(C(=O)N2Cc3c(NC(=O)c4ccc5ccccc5c4)n[nH]c3C2(C)C)CC1

IC50 (A2780) | solubility [1] | IC50 [2] | Structure (SMILES)
180 nM | > 225 µM | 46 nM | CN1CCN(C(=O)N2Cc3c(NC(=O)c4ccc(F)cc4)n[nH]c3C2(C)C)CC1
650 nM | > 225 µM | 11 nM | CCCNC(=O)Nc1n[nH]c2c1CN(C(=O)C1CCN(C)CC1)C2(C)C
380 nM | > 225 µM | 68 nM | CC1(C)c2[nH]nc(NC(=O)c3ccc(F)cc3)c2CN1C(=O)C1CCN(C2CC2)CC1
30 nM | 155 µM (≈ 60.1 µg/mL) | 10 nM | CN1CCC(C(=O)N2Cc3c(NC(=O)c4cccs4)n[nH]c3C2(C)C)CC1
140 nM | > 225 µM | 9 nM | CN1CCC(C(=O)N2Cc3c(NC(=O)C4CCC4)n[nH]c3C2(C)C)CC1
200 nM | > 225 µM | 14 nM | CN1CCC(C(=O)N2Cc3c(NC(=O)c4cccc(F)c4)n[nH]c3C2(C)C)CC1
140 nM | > 225 µM | 5 nM | CN1CCC(C(=O)N2Cc3c(NC(=O)c4ccsc4)n[nH]c3C2(C)C)CC1
500 nM | > 225 µM | 25 nM | CN1CCC(C(=O)N2Cc3c(NC(=O)c4ccncc4)n[nH]c3C2(C)C)CC1
320 nM | > 225 µM | 24 nM | CC(C)CC(=O)Nc1n[nH]c2c1CN(C(=O)C1CCN(C3CC3)CC1)C2(C)C
120 nM | > 225 µM | 15 nM | CN1CCC(C(=O)N2Cc3c(NC(=O)c4ccc(Cl)cc4)n[nH]c3C2(C)C)CC1
580 nM | > 225 µM | 77 nM | CN(C)CC(=O)Nc1n[nH]c2c1CN(C(=O)C(C)(C)C)C2(C)C
160 nM | > 225 µM | 23 nM | CN1CCC(C(=O)N2Cc3c(NC(=O)c4ccccc4)n[nH]c3C2(C)C)CC1
130 nM | > 225 µM | 16 nM | CN1CCC(C(=O)N2Cc3c(NC(=O)c4cc(F)cc(F)c4)n[nH]c3C2(C)C)CC1
2680 nM | > 225 µM | 21 nM | CN1CCC(C(=O)N2Cc3c(NC(=O)NCc4ccccc4)n[nH]c3C2(C)C)CC1
1420 nM | > 225 µM | 15 nM | CN1CCC(C(=O)N2Cc3c(NC(=O)C4CC4)n[nH]c3C2(C)C)CC1
120 nM | > 225 µM | 23 nM | CN1CCC(C(=O)N2Cc3c(NC(=O)c4ccc(F)cc4)n[nH]c3C2(C)C)CC1
100 nM | > 225 µM | 14 nM | CN1CCC(C(=O)N2Cc3c(NC(=O)c4ccc(F)c(F)c4)n[nH]c3C2(C)C)CC1
